# In ChEMBL document CHEMBL5252572, “Design, synthesis, and anti-triple negative breast cancer activity of novel Toosendanin derivatives” (Bioorg Med Chem Lett, 2023):
# Structures can show the parent of a compound that is named as a salt. Calls of active or inactive are those of the source. No cut-off for these calls is given here.
# Tests used:
# [1] = tested on: HCC1806; test: Antiproliferative activity against human HCC1806 cells assessed as inhibition of cell growth at 20 uM by SRB assay relative to control; type: functional
# [2] = tested on: MDA-MB-231; test: Antiproliferative activity against human MDA-MB-231 cells assessed as inhibition of cell growth at 20 uM by SRB assay relative to control; type: functional
# [3] = tested on: 4T1; test: Antitumor activity against mouse 4T1 cells implanted in BALB/C mouse assessed as tumor growth inhibition at 4 mg/kg administered once every two days for 15 days in the presence of toosendanin relative to control; type: functional; conditions: 4T1, 360 h, time 15 day, read-out: TGI
# [4] = target: RAC-alpha serine/threonine-protein kinase (Homo sapiens) (UniProt P31749); test: Inhibition of AKT phosphorylation in human HCC1806 cells at 10 uM incubated for 24 hrs by Western blot analysis; type: cell-based
# Sequence of RAC-alpha serine/threonine-protein kinase (Homo sapiens) (P31749 whole entry): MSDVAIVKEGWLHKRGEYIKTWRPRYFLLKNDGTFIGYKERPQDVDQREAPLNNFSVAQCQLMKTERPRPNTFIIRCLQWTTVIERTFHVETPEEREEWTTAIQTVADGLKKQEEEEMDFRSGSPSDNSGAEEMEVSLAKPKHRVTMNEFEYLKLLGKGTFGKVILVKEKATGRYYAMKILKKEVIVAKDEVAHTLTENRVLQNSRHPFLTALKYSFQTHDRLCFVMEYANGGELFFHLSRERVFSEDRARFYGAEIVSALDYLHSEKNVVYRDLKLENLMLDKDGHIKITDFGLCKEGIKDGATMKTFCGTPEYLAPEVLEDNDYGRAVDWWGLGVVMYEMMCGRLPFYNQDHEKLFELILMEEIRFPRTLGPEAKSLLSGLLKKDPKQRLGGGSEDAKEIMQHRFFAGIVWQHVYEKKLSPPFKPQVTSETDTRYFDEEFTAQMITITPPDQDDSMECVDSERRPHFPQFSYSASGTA
# [5] = tested on: HCC1806; test: Antitumor activity against human HCC1806 cells assessed as induction of p21 protein accumulation at 10 uM incubated for 24 hrs by Western blot analysis; type: functional, cell-based
# [6] = tested on: HCC1806; test: Antitumor activity against human HCC1806 cells assessed as induction of phosphorylated p38 protein accumulation at 10 uM incubated for 24 hrs by Western blot analysis; type: functional, cell-based
# [7] = tested on: HCC1806; test: Antitumor activity against human HCC1806 cells assessed as reduction in p53 protein level at 10 uM incubated for 24 hrs by Western blot analysis; type: functional, cell-based
# [8] = tested on: MDA-MB-231; test: Antiproliferative activity against human MDA-MB-231 cells assessed as inhibition of cell growth by SRB assay; type: functional, cell-based
# [9] = tested on: HCC1806; test: Inhibition of ERK phosphorylation in human HCC1806 cells at 10 uM incubated for 24 hrs by Western blot analysis; type: cell-based
# [10] = tested on: HCC1806; test: Induction of cell cycle arrest in human HCC1806 cells assessed as accumulation at S phase at 10 uM incubated for 24 hrs by flow cytometric analysis; type: functional, cell-based
# [11] = tested on: HCC1806; test: Induction of cell cycle arrest in human HCC1806 cells assessed as decrease in G2/M phase cells at 10 uM incubated for 24 hrs by flow cytometric analysis; type: functional, cell-based
# [12] = tested on: HCC1806; test: Antiproliferative activity against human HCC1806 cells assessed as inhibition of cell growth by SRB assay; type: functional, cell-based
# [13] = tested on: 4T1; test: Antitumor activity against mouse 4T1 cells implanted in BALB/C mouse assessed as tumor growth inhibition at 0.69 mg/kg administered once every two days for 15 days in the presence of adriamycin relative to control; type: functional; conditions: 4T1, 360 h, time 15 day, read-out: TGI
SMILES,inhibition at 20 µM [1] [%],inhibition at 20 µM [2] [%],further results
CC(=O)O[C@@H]1C[C@H](O)[C@@]23COC[C@]1(C)[C@@H]2C[C@@H](OC(=O)c1ccc([N+](=O)[O-])cc1)[C@@]1(C)[C@@H]2C(=O)C[C@@H](c4ccoc4)[C@]2(C)[C@@H](OC(C)=O)C(=O)[C@@H]13,-0.88,3.95,
CC(=O)O[C@H]1C[C@@H](OC(C)=O)[C@]2(C)C(O)OC[C@]13[C@H]1C(=O)[C@H](OC(C)=O)[C@@]4(C)[C@H](c5ccoc5)C[C@H]5O[C@]54[C@]1(C)[C@H](OC(C)=O)C[C@@H]23 (stereo partly drawn),-27.9,6.36,
CC(=O)O[C@H]1C[C@@H](OC(C)=O)[C@]2(C)C(=O)OC[C@]13[C@H]1C(=O)[C@H](OC(C)=O)[C@@]4(C)[C@H](c5ccoc5)C[C@H]5O[C@]54[C@]1(C)[C@H](OC(C)=O)C[C@@H]23,-9.68,4.86,
COc1cccc2c1C(=O)c1c(O)c3c(c(O)c1C2=O)C[C@@](O)(C(=O)CO)C[C@@H]3O[C@H]1C[C@H](N)[C@H](O)[C@H](C)O1 [DOXORUBICIN HYDROCHLORIDE],,,inhibition in vivo at 4 mg/kg [3]: 90%
CC(=O)O[C@@H]1C[C@H](O)[C@@]23COC[C@]1(C)[C@@H]2C[C@@H](OC(=O)c1ccccc1F)[C@@]1(C)[C@@H]2C(=O)C[C@@H](c4ccoc4)[C@]2(C)[C@@H](OC(C)=O)C(=O)[C@@H]13,-1.53,8.23,
CC(=O)OC1OC[C@]23[C@@H](OC(C)=O)C[C@@H](OC(C)=O)[C@@]1(C)[C@@H]2C[C@@H](OC(C)=O)[C@]1(C)[C@@H]3C(=O)[C@H](OC(C)=O)[C@@]2(C)[C@H](c3ccoc3)C[C@H]3O[C@@]312 (stereo partly drawn),-31,128,
CC(=O)O[C@@H]1C[C@H](O)[C@@]23COC[C@]1(C)[C@@H]2C[C@@H](O)[C@@]1(C)[C@@H]2/C(=N/O)C[C@@H](c4ccoc4)[C@]2(C)[C@@H](OC(C)=O)C(=O)[C@@H]13,10.9,4.72,
COc1ccc(C(=O)O[C@@H]2C[C@H]3[C@@]4(C)COC[C@@]3([C@@H](O)C[C@H]4OC(C)=O)[C@H]3C(=O)[C@H](OC(C)=O)[C@]4(C)[C@@H](C(=O)C[C@H]4c4ccoc4)[C@]23C)cc1,0.37,14.3,
CC(=O)O[C@@H]1C[C@H](O)[C@@]23COC[C@]1(C)[C@@H]2C[C@@H](OC(=O)c1ccccc1)[C@@]1(C)[C@@H]2C(=O)C[C@@H](c4ccoc4)[C@]2(C)[C@@H](OC(C)=O)C(=O)[C@@H]13,14.9,20.7,
CC(=O)O[C@@H]1C[C@H](O)[C@@]23COC(=O)[C@]1(C)[C@@H]2C[C@@H](O)[C@]1(C)[C@@H]3C(=O)[C@H](OC(C)=O)[C@@]2(C)[C@H](c3ccoc3)C[C@H]3O[C@]321,93.8,68.7,inhibition [4]: Active; Activity [5]: Active; Activity [6]: Active; Activity [7]: Active; IC50 [8]: 6.61 µM; inhibition [9]: Active; Activity [10]: Active; Activity [11]: Active; IC50 [12]: 0.98 µM
CC(=O)O[C@@H]1C[C@H](O)[C@@]23COC[C@]1(C)[C@@H]2C[C@@H](O)[C@@]1(C)[C@@H]2C(=O)C[C@@H](c4ccoc4)[C@]2(C)[C@@H](OC(C)=O)C(=O)[C@@H]13,-42.3,5.4,
CC(=O)O[C@@H]1C[C@H](O)[C@@]23COC[C@]1(C)[C@@H]2CC(=O)[C@@]1(C)[C@@H]2C(=O)C[C@@H](c4ccoc4)[C@]2(C)[C@@H](OC(C)=O)C(=O)[C@@H]13,14.7,11.7,
CC(=O)O[C@@H]1C[C@H](O)[C@@]23COC(=O)[C@]1(C)[C@@H]2C[C@@H](O)[C@@]1(C)[C@@H]2C(=O)C[C@@H](c4ccoc4)[C@]2(C)[C@@H](OC(C)=O)C(=O)[C@@H]13,-24.7,6.87,
CC(=O)O[C@@H]1C[C@H](O)[C@@]23CO[C@@H](O)[C@]1(C)[C@@H]2C[C@@H](O)[C@]1(C)[C@@H]3C(=O)[C@H](OC(C)=O)[C@@]2(C)[C@H](c3ccoc3)C[C@H]3O[C@]321 [TOOSENDANIN],101,79.2,inhibition [4]: Active; Activity [5]: Active; Activity [6]: Active; Activity [7]: Active; IC50 [8]: 0.115 µM; inhibition [9]: Active; inhibition in vivo at 0.69 mg/kg [13]: 90%; Activity [10]: Active; Activity [11]: Active; IC50 [12]: 0.019 µM
COC1OC[C@]23[C@@H](O)C[C@@H](OC(C)=O)[C@@]1(C)[C@@H]2C[C@@H](O)[C@@]1(C)[C@@H]2C(=O)C[C@@H](c4ccoc4)[C@]2(C)[C@@H](OC(C)=O)C(=O)[C@@H]13 (stereo partly drawn),-15.8,4.29,
CC(=O)O[C@@H]1C[C@H](O)[C@@]23COC[C@]1(C)[C@@H]2C[C@@H](O)[C@@]1(C)[C@@H]2C(=O)C[C@@H](c4coc(Br)c4)[C@]2(C)[C@@H](OC(C)=O)C(=O)[C@@H]13,2.97,-5.16,
CC(=O)O[C@@H]1C[C@H](O)[C@@]23COC[C@]1(C)[C@@H]2C[C@@H](O)[C@@]1(C)[C@@H]2[C@@H](O)C[C@@H](c4ccoc4)[C@]2(C)[C@@H](OC(C)=O)C(=O)[C@@H]13,87.3,61.5,IC50 [8]: 11.8 µM; IC50 [12]: 5.76 µM
CC(=O)O[C@@H]1C[C@H](O)[C@@]23COC(=O)[C@]1(C)[C@@H]2C[C@@H](O)[C@]1(C)[C@@H]3C(=O)C(O)[C@@]2(C)[C@H](c3ccoc3)C[C@H]3O[C@@]312 (mixture of isomers),9.96,9.58,
CC(=O)O[C@@H]1C[C@H](O)[C@@]23COC[C@]1(C)[C@@H]2C[C@@H](OC(=O)/C=C/c1ccc(OC(F)(F)F)cc1)[C@@]1(C)[C@@H]2C(=O)C[C@@H](c4ccoc4)[C@]2(C)[C@@H](OC(C)=O)C(=O)[C@@H]13,18.1,9.9,
